Experimental data from ChEMBL document CHEMBL1137904, “Design, synthesis, and evaluation of oxyanion-hole selective inhibitor substituents for the S1 subsite of factor Xa” (Bioorg Med Chem Lett, 2004).

Assay: In vitro inhibitory activity towards Coagulation factor X was determined using chromogenic substrate, MeO-COD-CHG-Gly-Arg-pNA

Ki [µM] | SMILES
197 | N=C(N)c1ccc(N)cc1
55 | N=C(N)c1ccc(CO)cc1
607 | N=C(N)c1ccc(CCO)cc1
1800 | CS(=O)(=O)c1ccc(C(=N)N)cc1
> 5000 | CP(=O)(O)c1ccc2c(N)nccc2c1
429 | N=C(N)c1ccc(CN)cc1
30 | N=C(N)c1ccc(O)cc1
193 | CS(=O)(=O)CCc1ccc(C(=N)N)cc1
> 5000 | CS(=O)(=O)Cc1ccc(C(=N)N)cc1
349 | N=C(N)c1ccccc1 [BENZAMIDINE]

SMILES | Ki [µM]
N=C(N)c1ccc(CCN)cc1 | 750
CN(C)c1ccc(P(C)(=O)O)cc1 | 4100
